Results published in US20040204493A1, “Carbonic anhydrase inhibitors as drugs to eradicate Helicobacter pylori in the mammalian, including human, stomach” (priority 2003, published 2004).
Like-named read-outs stand apart in the source and are kept apart here.

What was measured:
H. pylori [1] = experiment: Periplasmic pH buffering of H. pylori in acid with urea, fluorescent pH sensitive dye BCECF (FIG. 1); format: cell-based, Helicobacter pylori
Experimental: (§1) H. pylori bacteria which could not produce α-carbonic anhydrase gene (deletion mutants) were unable to survive in acid and were incapable of raising their periplasmic pH even with wildtype urease activity levels. […] This is illustrated in FIG. 1 of the appended drawings.
Specifically, H. pylori was incubated in acid along with a fluorescent pH sensitive dye, BCECF, (bis-carboxy ethylcarboxy fluorescein) and then urea was added at 5 mM which is substantially the gastric juice concentration. In part A of the figure the increase in periplasmic pH is shown by the increased fluorescence of the dye indicating viable H. pylori bacteria.

[2] = cited from earlier work
H. pylori [3] = experiment: Survival of wildtype H. pylori in acid, in vitro; format: cell-based, Helicobacter pylori
Description: as §1
Therefore, it is now understood in accordance with the present invention that it is the combination of urease activation, expression of UreI and the periplasmic carbonic anhydrase that allows gastric colonization by H. pylori. […] Thus, targeting the acid biology of this pathogen provides specific H. pylori therapy. It is recognized in accordance with the present invention that within these three targets, a safe drug is only available for carbonic anhydrase.

[4] = tested on: basal acid secretion and stimulated acid secretion; settings: humans, cited from earlier work
urease = molecular target: T1, urease (Helicobacter pylori, UniProt P69996); experiment: Urease activity of H. pylori under in vitro treatment; format: cell-based; settings: wildtype H. pylori
T1 construct: endogenous in cells
T1 sequence (P69996 whole entry): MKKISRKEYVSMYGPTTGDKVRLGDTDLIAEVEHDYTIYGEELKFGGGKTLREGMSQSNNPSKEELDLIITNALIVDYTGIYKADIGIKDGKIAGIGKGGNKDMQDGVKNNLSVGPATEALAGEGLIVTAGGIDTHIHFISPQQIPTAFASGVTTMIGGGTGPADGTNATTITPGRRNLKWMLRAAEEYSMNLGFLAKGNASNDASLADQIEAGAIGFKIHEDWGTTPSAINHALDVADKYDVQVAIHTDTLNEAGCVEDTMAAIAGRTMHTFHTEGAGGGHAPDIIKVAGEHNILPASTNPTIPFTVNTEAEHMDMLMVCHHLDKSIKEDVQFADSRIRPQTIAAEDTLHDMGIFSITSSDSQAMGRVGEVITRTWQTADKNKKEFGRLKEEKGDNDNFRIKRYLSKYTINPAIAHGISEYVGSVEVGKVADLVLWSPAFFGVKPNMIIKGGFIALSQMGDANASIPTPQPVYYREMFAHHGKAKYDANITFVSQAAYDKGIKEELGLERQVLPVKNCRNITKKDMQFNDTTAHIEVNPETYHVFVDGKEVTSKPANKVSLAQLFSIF
T1 sequence (P14916 whole entry, further chain): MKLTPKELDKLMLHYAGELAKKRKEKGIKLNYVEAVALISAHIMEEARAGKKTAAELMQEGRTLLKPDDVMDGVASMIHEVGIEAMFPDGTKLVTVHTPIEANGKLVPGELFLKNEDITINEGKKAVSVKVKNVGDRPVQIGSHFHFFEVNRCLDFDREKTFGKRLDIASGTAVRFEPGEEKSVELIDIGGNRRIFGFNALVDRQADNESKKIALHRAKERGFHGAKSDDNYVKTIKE
Description: as §1

CC(=O)Nc1nnc(S(N)(=O)=O)s1 [acetazolamide]
periplasmic buffering of pH (BCECF fluorescence) (H. pylori [1]; normal H. pylori in acid, urea 5 mM, drug added to the medium, FIG. 1 part C): no periplasmic buffering of pH detected
bacterial ability to buffer its periplasm (H. pylori [1]; wildtype H. pylori in acid, in vitro treatment): inhibited
relapse rate ([2]; 2 years after treatment, treated for 30 days (Valean et al.)): 6.2%
relapse rate ([2]; 3 week treatment, ulcer healing (Erdei et al.)): 11%
patients with intragastric pain abolished ([2]; 118 gastric ulcer patients, oral, after 3-5 days): 94%
patients with complete ulcer healing (endoscopic evaluation) ([2]; after 15 days of treatment): 87%
patients with complete ulcer healing (endoscopic evaluation) ([2]; after 30 days of treatment): 94%
loss of survival of H. pylori in acid (H. pylori [3]; in acid, drug present): > 3 log order of magnitude
bacterial ability to survive in acid (H. pylori [3]; wildtype H. pylori, in vitro treatment): inhibited the bacterial ability to survive in acid
reduction of histamine stimulated acid secretion (MAO) ([4]; histamine stimulated): 83.2%
reduction of basal acid output (BAO) [4]: 92.3%
return of normal acid secretion following cessation of treatment [4]: 3-5
time of treatment to maximal acid inhibition [4]: 3 to 5 days
effect on urease activity (urease): without affecting urease activity
